In general, melting point refers to the temperature of the solid-liquid transition.

The compound `COc1ccc(Oc2cc(-n3c(=O)cc(C(F)(F)F)n(C)c3=O)c(F)cc2C#N)cc1` [Example 2, 4-(3,6-dihydro-2,6-dioxo-3-methyl-4-trifluoromethyl-1(2H)-pyrimidin-1-yl)-5-fluoro-2-(4-methoxy-phenoxy)-benzonitrile] came in with a melting point of 62 °C.

As for `COc1ccc(Oc2cc(-n3c(=O)cc(C(F)(F)F)[nH]c3=O)c(F)cc2C#N)cc1` [Example 1, 4-(3,6-dihydro-2,6-dioxo-4-trifluoromethyl-1(2H)-pyrimidin-1-yl)-5-fluoro-2-(4-methoxy-phenoxy)-benzonitrile], the melting point was 84 °C.

(Values after patent publication US6780821B1, “Substituted phenyl uracils” (Bayer Aktiengesellschaft, priority 1998, dated 2004).)
